The assay has as its system Gram-positive and Gram-negative bacteria. Nature of the assay: In vitro antibacterial assay, pooled statement over all tested strains. Type of assay: cell-based, S. aureus, B. subtilis, S. typhi, E. coli.

In turn, `O=c1c(O)c(-c2ccc(O)c(O)c2)oc2cc(O)cc(O)c12` [Compound 1, quercetin] showed a minimal inhibitory concentration (MIC) of 0.0692 to 0.151 µM.

As for `O=c1c(O)c(-c2ccc(O)cc2)oc2cc(O)cc(O)c12` [Compound 3, kaempferol], the MIC is more than 100 µg/mL.
